Source: patent US20250099420A1, “SMALL MOLECULE MODULATORS OF GPR139 COMPLEX” (University of Florida Research Foundation, Incorporated, priority 2022, published 2025)
Like-named read-outs stand apart in the source and are kept apart here.

Tests used:
parental HEK cells = experiment: HEK parental Agonist Counterscreen Assay (non-transfected cells); type: cell-based; settings: for Averaged Max % Response (±St. Dev.): activity relative to known control
Text: The high control for the agonist counterscreen was Forskolin not acetylcholine.

GPR139 = target: T1, GPR139 (Homo sapiens, UniProt Q6DWJ6); experiment: GPR139 Agonist titration / agonist counterscreen assay (calcium detection, HEK-GPR139 cells); type: cell-based; set-up: expressed in transfected cells; host or cells: HEK Aequorin cells, Maxcyte transient transfection; settings: GPR139 Agonist Activity; for Averaged Max % Response (±St. Dev.): activity relative to known control; for EC50: read-out: EC50
T1 sequence (Q6DWJ6 1-353): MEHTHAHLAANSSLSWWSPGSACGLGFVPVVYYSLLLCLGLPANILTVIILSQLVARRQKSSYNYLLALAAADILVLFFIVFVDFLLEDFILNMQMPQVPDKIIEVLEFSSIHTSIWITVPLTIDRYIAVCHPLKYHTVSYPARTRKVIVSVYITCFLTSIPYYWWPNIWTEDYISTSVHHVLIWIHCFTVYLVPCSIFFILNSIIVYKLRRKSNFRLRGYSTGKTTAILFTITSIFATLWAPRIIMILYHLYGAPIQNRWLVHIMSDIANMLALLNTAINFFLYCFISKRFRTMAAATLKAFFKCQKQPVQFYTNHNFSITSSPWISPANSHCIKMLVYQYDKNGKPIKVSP
Experimental: GPR activity was assessed using a calcium detection assay. […] Negative control samples were treated with DMSO. […] Intracellular calcium was measured using Calcium 5.

[1] = Homo sapiens, HEK293, HEK Agonist Activity section of Table 4 (parental HEK counterscreen)
[2] = values printed in E-notation without unit
[3] = Homo sapiens, HEK293, HEK Agonist Activity, parental non-transfected HEK cells
[4] = HEK Agonist Activity section of Table 4 (parental HEK counterscreen)

| SMILES | Lipophilic Efficiency (logD) (parental HEK cells; HEK Agonist Activity section) | Lipophilic Efficiency (logP) (parental HEK cells; HEK Agonist Activity section) | Averaged Max % Response (±St. Dev.) (parental HEK cells; HEK Agonist Activity section) [%] | EC50 (parental HEK cells; [1]) [nM] | Averaged Max % Response (±St. Dev.) (GPR139) [%] | Lipophilic Efficiency (logD) (GPR139; based on logD) | Lipophilic Efficiency (logP) (GPR139; based on logP) | Hill Slope (GPR139; fitted dose-response curve) | Efficiency Ligand (GPR139; ligand efficiency) | EC50 (GPR139; [2]) [nM] | Efficiency Ligand (GPR139) | Hill Slope (GPR139) | Lipophilic Efficiency (logD) (GPR139) | Lipophilic Efficiency (logP) (GPR139) | EC50 (GPR139; HEK-GPR139 cells) [nM] | Lipophilic Efficiency (logD) (parental HEK cells; HEK Agonist Activity) | Lipophilic Efficiency (logP) (parental HEK cells; HEK Agonist Activity) | Averaged Max % Response (±St. Dev.) (parental HEK cells; HEK Agonist Activity) [%] | EC50 (parental HEK cells; [3]) [nM] | EC50 (parental HEK cells; [4]) [nM] |
| --- | --- | --- | --- | --- | --- | --- | --- | --- | --- | --- | --- | --- | --- | --- | --- | --- | --- | --- | --- | --- |
| Cc1ccccc1CS(=O)(=O)CCC(=O)NC(C)c1ccccc1 (stereo not shown) [SR-01000145393] | 2.34 | 2.34 | 10.41 ± 2.89 | > 14100 | 97.82 ± 12.25 | 4.42 | 4.42 | 0.70 | 0.40 | 116 | – | – | – | – | – | – | – | – | – | – |
| Cc1ccc(CNC(=O)Cn2nc(-c3ccc(C)cc3)ccc2=O)cc1 [SR-01000145456] | 1.62 | 1.62 | −11.57 ± 15.53 | > 14100 | 88.21 ± 16.68 | – | – | – | – | – | 0.32 | 1.42 | 2.66 | 2.66 | 1300 | – | – | – | – | – |
| CCCCC(O)CCNC(=O)C1CC(=O)N(CCc2ccc(C)cc2)C1 (stereo not shown) [SR-01000145701] | 4.13 | 2.54 | 10.54 ± 1.83 | > 14100 | 114.02 ± 14.51 | – | – | – | – | – | 0.34 | 0.99 | 5.67 | 4.07 | 414 | – | – | – | – | – |
| COc1ccc(C2=NN(CC(=O)NCCCN(C)c3ccccc3)C(=O)CC2)cc1 [SR-01000145949] | – | – | – | – | 122.18 ± 22.07 | 5.74 | 5.73 | 1.04 | 0.36 | 21.5 | – | – | – | – | – | 2.92 | 2.92 | 2.57 ± 15.21 | > 14100 | – |
| CN(C)c1ccc(NC(=O)Cn2cc(C=O)c3ccccc32)cc1 [SR-01000146281] | 1.82 | 1.82 | 8.26 ± 4.28 | – | 89.20 ± 13.55 | – | – | – | – | – | 0.37 | 1.64 | 3.32 | 3.32 | 449 | – | – | – | – | > 14100 |
| CC1CCCC(NC(=O)CN2CCCN(Cc3ccc(F)cc3Cl)C2=O)C1C (stereo not shown) [SR-01000146420] | – | – | – | – | 113.46 ± 20.46 | 4.29 | 4.29 | 1.05 | 0.38 | 29.6 | – | – | – | – | – | 1.61 | 1.61 | 20.27 ± 3.59 | > 14100 | – |
| O=C(CN1CCCN(Cc2ccc(F)cc2Cl)C1=O)NC1CCCCCC1 [SR-01000146442] | – | – | – | – | 108.38 ± 13.78 | 4.80 | 4.80 | 0.79 | 0.41 | 14.9 | – | – | – | – | – | 1.82 | 1.82 | −6.48 ± 10.66 | > 14100 | – |
| Cc1ccc(CN2CCCN(CC(=O)NC3CCCCCCC3)C2=O)c(Cl)c1 [SR-01000146444] | 1.38 | 1.38 | 20.98 ± 2.11 | > 14100 | 112.24 ± 16.06 | 3.54 | 3.54 | 0.93 | 0.35 | – | – | – | – | – | – | – | – | – | – | – |
| O=C(CN1CCCN(Cc2ccc(F)cc2Cl)C1=O)NC1CCCC1 [SR-01000146446] | 2.71 | 2.71 | −2.89 ± 4.65 | – | 113.08 ± 17.13 | – | – | – | – | – | 0.37 | 0.77 | 4.40 | 4.40 | 289 | – | – | – | – | > 14100 |
| O=C(CN1CCCN(Cc2ccc(F)cc2Cl)C1=O)NC1CCCCC1 [SR-01000146448] | 2.27 | 2.27 | 10.11 ± 11.28 | – | 112.56 ± 16.12 | – | – | – | – | – | 0.35 | 0.92 | 3.97 | 3.97 | 281 | – | – | – | – | > 14100 |
| O=C(CC1Nc2ccccc2NC1=O)NCC1COc2ccccc2O1 (stereo not shown) [SR-01000146516] | 3.75 | 3.75 | −2.96 ± 7.51 | > 14100 | 88.18 ± 13.52 | 5.60 | 5.60 | 0.77 | 0.36 | 196 | – | – | – | – | – | – | – | – | – | – |
| Cc1ccc(CN2CCN(CC(=O)N3CC(C)CC(C)C3)C2=O)cc1 (stereo not shown) [SR-01000150389] | 2.56 | 2.56 | 0.25 ± 10.83 | – | 112.97 ± 21.84 | 4.43 | 4.43 | 0.95 | 0.38 | 189 | – | – | – | – | – | – | – | – | – | > 14100 |
| CCN(CCCNC(=O)CN1CCC(Cc2ccccc2C)C1=O)c1cccc(C)c1 (stereo not shown) [SR-01000150393] | 1.45 | 1.43 | 10.10 ± 9.60 | > 14100 | 97.57 ± 16.88 | 3.55 | 3.54 | 1.18 | 0.31 | – | – | – | – | – | – | – | – | – | – | – |
| O=C(CC1CCN(Cc2ccccc2O)C1=O)C1CCC(c2cccc(O)c2)C(O)C1 (stereo not shown) [SR-01000151350] | 1.47 | 1.47 | 12.46 ± 7.98 | > 14100 | 101.74 ± 19.26 | – | – | – | – | – | 0.29 | 1.51 | 3.10 | 3.10 | 328 | – | – | – | – | – |
| Cc1ccc(CC2CCC(CC(=O)CC3CCCCCCC3)C2=O)cc1 (stereo not shown) [SR-01000151470] | 1.44 | 1.44 | −9.17 ± 11.99 | > 14100 | 78.27 ± 16.46 | – | – | – | – | – | 0.31 | 1.14 | 2.62 | 2.62 | – | – | – | – | – | – |
| O=C(CCc1nc2cccnc2n1Cc1cccs1)NCc1ccc2c(c1)OCO2 [SR-01000151666] | 1.87 | 1.87 | −3.95 ± 11.76 | > 14100 | 107.14 ± 25.50 | 4.24 | 4.24 | 0.74 | 0.34 | 60.3 | – | – | – | – | – | – | – | – | – | – |
| O=C(Cn1nc(Cc2ccncc2)c2ccccc2c1=O)N1CCCc2ccccc21 [SR-01000151917] | 1.92 | 1.92 | 10.70 ± 4.71 | > 14100 | 110.81 ± 5.15 | – | – | – | – | – | 0.28 | 1.73 | 3.34 | 3.33 | 537 | – | – | – | – | – |
| O=C(Cn1ncc2c1-c1ccccc1OC2)Nc1ccc(Cl)cc1 [SR-01000152099] | 2.23 | 2.23 | 29.06 ± 12.18 | > 14100 | 112.22 ± 29.96 | – | – | – | – | – | 0.36 | 0.62 | 3.61 | 3.61 | 589 | – | – | – | – | – |
| Cc1cccnc1NC(=O)Cn1ncc2c1-c1ccccc1OC2 [SR-01000152365] | 2.49 | 2.49 | 18.44 ± 8.07 | – | 96.01 ± 17.34 | 4.77 | 4.77 | 0.99 | 0.42 | 73 | – | – | – | – | – | – | – | – | – | > 14100 |
